Results reported in PubChem BioAssay AID248 (DTP/NCI, 2004).
“And” between values parts separate entries of the source, which are not always exact repeats. Equal entries are not always repeated. Toxic doses and inconclusive results are not listed. Rule as the data show it: active = T/C of 150% or more; inactive = T/C below 125%.

Test system: L1210 leukemia ip in BDF1 mice, survival T/C
Experiment: NCI In Vivo Anticancer Drug Screen. Data for tumor model L1210 Leukemia (intraperitoneal) in B6D2F1 (BDF1) mice
Conditions: endpoint: mean survival time, higher = longer survival
Outline: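 Antitumor effect is assessed in tumor-bearing animals. Survival in the compound arm is compared with a vehicle-dosed control arm and expressed as their quotient.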

[1] = dose: 100.0 mg/kg/injection, schedule: Q01DX001 (ip), vehicle: carboxymethylcellulose (CMC)
[2] = dose: 200.0 mg/kg/injection, schedule: Q01DX001 (ip), vehicle: carboxymethylcellulose (CMC)
[3] = dose: 100.0 mg/kg/injection, schedule: Q04DX003 (ip), vehicle: saline
[4] = dose: 200.0 mg/kg/injection, schedule: Q04DX003 (ip), vehicle: saline
[5] = dose: 400.0 mg/kg/injection, schedule: Q04DX003 (ip), vehicle: saline
[6] = dose: 100.0 mg/kg/injection, schedule: Q01DX009 (ip), vehicle: Klucel (hydroxypropylcellulose) (HPC)
[7] = dose: 200.0 mg/kg/injection, schedule: Q01DX009 (ip), vehicle: Klucel (hydroxypropylcellulose) (HPC)
[8] = dose: 400.0 mg/kg/injection, schedule: Q01DX009 (ip), vehicle: Klucel (hydroxypropylcellulose) (HPC)
[9] = dose: 25.0 mg/kg/injection, schedule: Q01DX009 (ip), vehicle: saline
[10] = dose: 50.0 mg/kg/injection, schedule: Q01DX009 (ip), vehicle: saline
[11] = dose: 100.0 mg/kg/injection, schedule: Q04DX003 (ip), vehicle: saline with Tween-80
[12] = dose: 200.0 mg/kg/injection, schedule: Q04DX003 (ip), vehicle: saline with Tween-80
[13] = dose: 400.0 mg/kg/injection, schedule: Q04DX003 (ip), vehicle: saline with Tween-80
[14] = dose: 100.0 mg/kg/injection, schedule: Q01DX009 (ip), vehicle: saline
[15] = dose: 200.0 mg/kg/injection, schedule: Q01DX009 (ip), vehicle: saline
[16] = dose: 100.0 mg/kg/injection, schedule: Q01DX001 (ip), vehicle: saline
[17] = dose: 200.0 mg/kg/injection, schedule: Q01DX001 (ip), vehicle: saline

Measured: T/C

CCCOC(=O)c1ccc(OC(=O)NC)cc1
inactive: [1] 92 % of control | dose: 100.0 mg/kg/injection, schedule: Q01DX009 (ip), vehicle: carboxymethylcellulose (CMC) 101 % of control and 106 % of control | dose: 100.0 mg/kg/injection, schedule: Q04DX002 (ip), vehicle: carboxymethylcellulose (CMC) 102 % of control and 112 % of control | dose: 100.0 mg/kg/injection, schedule: Q04DX003 (ip), vehicle: carboxymethylcellulose (CMC) 102 % of control | [2] 102 % of control | dose: 200.0 mg/kg/injection, schedule: Q01DX009 (ip), vehicle: carboxymethylcellulose (CMC) 109 % of control and 88 % of control | dose: 200.0 mg/kg/injection, schedule: Q04DX002 (ip), vehicle: carboxymethylcellulose (CMC) 97 % of control and 102 % of control | dose: 200.0 mg/kg/injection, schedule: Q04DX003 (ip), vehicle: carboxymethylcellulose (CMC) 91 % of control | dose: 400.0 mg/kg/injection, schedule: Q01DX001 (ip), vehicle: carboxymethylcellulose (CMC) 96 % of control | dose: 400.0 mg/kg/injection, schedule: Q04DX002 (ip), vehicle: carboxymethylcellulose (CMC) 94 % of control and 102 % of control

Cc1nc[nH]c(=O)c1CCC1OCCO1
inactive: [3] 93 % of control | [4] 98 % of control | [5] 98 % of control

OCC1OC(n2ncc3ccccc32)C(O)C1O (configuration not stated)
inactive: dose: 50.0 mg/kg/injection, schedule: Q01DX005 (ip), vehicle: other 109 % of control | dose: 100.0 mg/kg/injection, schedule: Q01DX005 (ip), vehicle: other 105 % of control | dose: 200.0 mg/kg/injection, schedule: Q01DX005 (ip), vehicle: other 98 % of control

CCN(C(=O)c1ccc(C(=O)N(CC)c2cccc(C)c2)cc1)c1cccc(C)c1
inactive: [6] 94 % of control | [7] 89 % of control | [8] 91 % of control

CC(C)O/N=C(/N)N=C(N)N
inactive: dose: 100.0 mg/kg/injection, schedule: Q01DX001 (ip), vehicle: other 98 % of control | dose: 200.0 mg/kg/injection, schedule: Q01DX001 (ip), vehicle: other 106 % of control

NCC(c1ccccc1)c1ccccc1
inactive: dose: 1.25 mg/kg/injection, schedule: Q01DX009 (ip), vehicle: saline 103 % of control | dose: 12.5 mg/kg/injection, schedule: Q04DX003 (ip), vehicle: saline 98 % of control | [9] 98 % of control | dose: 25.0 mg/kg/injection, schedule: Q04DX003 (ip), vehicle: saline 98 % of control | [10] 95 % of control | dose: 50.0 mg/kg/injection, schedule: Q04DX003 (ip), vehicle: saline 102 % of control

Cc1ccc(NC(=O)c2ccc([N+](=O)[O-])cc2)c(C)c1
inactive: dose: 100.0 mg/kg/injection, schedule: Q01DX001 (ip), vehicle: Klucel (hydroxypropylcellulose) (HPC) 91 % of control | dose: 100.0 mg/kg/injection, schedule: Q01DX009 (ip), vehicle: saline with Tween-80 96 % of control | [11] 94 % of control | dose: 200.0 mg/kg/injection, schedule: Q01DX001 (ip), vehicle: Klucel (hydroxypropylcellulose) (HPC) 94 % of control | dose: 200.0 mg/kg/injection, schedule: Q01DX009 (ip), vehicle: saline with Tween-80 102 % of control | [12] 96 % of control | dose: 400.0 mg/kg/injection, schedule: Q01DX001 (ip), vehicle: Klucel (hydroxypropylcellulose) (HPC) 112 % of control | dose: 400.0 mg/kg/injection, schedule: Q01DX009 (ip), vehicle: saline with Tween-80 96 % of control | [13] 99 % of control

CSc1ccc(OC(=O)Nc2ccc(Cl)c(Cl)c2)cc1C
inactive: [6] 106 % of control | dose: 100.0 mg/kg/injection, schedule: Q04DX003 (ip), vehicle: Klucel (hydroxypropylcellulose) (HPC) 88 % of control | [7] 92 % of control | dose: 200.0 mg/kg/injection, schedule: Q04DX003 (ip), vehicle: Klucel (hydroxypropylcellulose) (HPC) 93 % of control | [8] 92 % of control | dose: 400.0 mg/kg/injection, schedule: Q04DX003 (ip), vehicle: Klucel (hydroxypropylcellulose) (HPC) 88 % of control

COc1c(NC(=O)Nc2ccccc2C)cccc1[N+](=O)[O-]
inactive: dose: 6.25 mg/kg/injection, schedule: Q01DX009 (ip), vehicle: saline with Tween-80 100 % of control | dose: 6.25 mg/kg/injection, schedule: Q04DX002 (ip), vehicle: saline with Tween-80 96 % of control | dose: 12.5 mg/kg/injection, schedule: Q01DX009 (ip), vehicle: saline with Tween-80 92 % of control | dose: 12.5 mg/kg/injection, schedule: Q04DX002 (ip), vehicle: saline with Tween-80 93 % of control | dose: 25.0 mg/kg/injection, schedule: Q01DX009 (ip), vehicle: saline with Tween-80 88 % of control | dose: 25.0 mg/kg/injection, schedule: Q04DX002 (ip), vehicle: saline with Tween-80 100 % of control

C=CCC#N
inactive: [9] 95 % of control | [10] 101 % of control | [14] 97 % of control

Nc1ccnnc1
inactive: [10] 106 % of control | [14] 101 % of control | [15] 104 % of control

CSC(=S)NC#N
inactive: [10] 93 % of control | [14] 93 % of control | [3] 101 % of control | [15] 89 % of control | [4] 106 % of control | [5] 98 % of control

N#CSC(C(=O)c1ccccc1)c1ccccc1 (configuration not stated)
inactive: [11] 92 % of control | [12] 91 % of control | [13] 92 % of control

NNCC(F)(F)C(F)(F)C(F)(F)C(F)(F)C(F)(F)C(F)(F)C(F)(F)C(F)F
inactive: dose: 100.0 mg/kg/injection, schedule: Q01DX009 (ip), vehicle: DMSO 91 % of control | dose: 100.0 mg/kg/injection, schedule: Q04DX003 (ip), vehicle: DMSO 89 % of control | dose: 200.0 mg/kg/injection, schedule: Q01DX009 (ip), vehicle: DMSO 92 % of control | dose: 200.0 mg/kg/injection, schedule: Q04DX003 (ip), vehicle: DMSO 88 % of control | dose: 400.0 mg/kg/injection, schedule: Q04DX003 (ip), vehicle: DMSO 94 % of control

C[As](C)(=S)[As](C)(C)=S
inactive: dose: 12.5 mg/kg/injection, schedule: Q01DX009 (ip), vehicle: Klucel (hydroxypropylcellulose) (HPC) 97 % of control | dose: 12.5 mg/kg/injection, schedule: Q04DX002 (ip), vehicle: Klucel (hydroxypropylcellulose) (HPC) 107 % of control and 88 % of control | dose: 25.0 mg/kg/injection, schedule: Q01DX009 (ip), vehicle: Klucel (hydroxypropylcellulose) (HPC) 97 % of control | dose: 25.0 mg/kg/injection, schedule: Q04DX002 (ip), vehicle: Klucel (hydroxypropylcellulose) (HPC) 96 % of control and 91 % of control | dose: 50.0 mg/kg/injection, schedule: Q01DX009 (ip), vehicle: Klucel (hydroxypropylcellulose) (HPC) 87 % of control

CC1Oc2ccccc2OC1C(=O)NN (configuration not stated)
inactive: [11] 95 % of control | [12] 97 % of control | [13] 106 % of control

COC1CCS(=O)(=O)C1 (configuration not stated)
inactive: [16] 95 % of control | [14] 97 % of control | [17] 94 % of control | [15] 98 % of control | dose: 400.0 mg/kg/injection, schedule: Q01DX001 (ip), vehicle: saline 94 % of control | dose: 400.0 mg/kg/injection, schedule: Q01DX009 (ip), vehicle: saline 100 % of control

O=CNc1c(Cl)c(Cl)c2c(c1Cl)Cc1cc(Cl)ccc1-2
inactive: dose: 50.0 mg/kg/injection, schedule: Q01DX001 (ip), vehicle: carboxymethylcellulose (CMC) 94 % of control | dose: 50.0 mg/kg/injection, schedule: Q04DX003 (ip), vehicle: acetone 97 % of control | dose: 75.0 mg/kg/injection, schedule: Q01DX009 (ip), vehicle: saline with Tween-80 108 % of control | [1] 91 % of control | [16] 91 % of control | dose: 100.0 mg/kg/injection, schedule: Q04DX003 (ip), vehicle: acetone 105 % of control | dose: 150.0 mg/kg/injection, schedule: Q01DX009 (ip), vehicle: saline with Tween-80 109 % of control | [2] 102 % of control | [17] 91 % of control | dose: 200.0 mg/kg/injection, schedule: Q04DX003 (ip), vehicle: acetone 94 % of control
